Literature values as cited in US20050266077A1, “Resorbable matrices with coatings for delivery of bioactive compounds” (Royal Biomedical, Inc., priority 2002, published 2005).

Settings: exothermic reaction, matrix temperatures as high as 100° C

- inactivation of antibiotic: inactivated
Substance: polymyxin
